Results reported in patent US20090099204A1, “Amide derivative, insecticide containing the same and method for application thereof as insecticide” (Mitsui Chemicals, Inc., priority 2005, published 2009).

Tests used:
Assay type in all cases: in vivo
[1] = system: Western Flower Thrip (Franklinella occidentalis); assay: Insecticidal Test on Western Flower Thrip (Franklinella occidentalis); details: Comparative Example 1; same conditions as Test Example 3
[2] = system: Melon Thrip (Thrips palmi); assay: Insecticidal Test on Melon Thrip (Thrips palmi); details: Comparative Example 1; same conditions as Test Example 4
Excerpt: Insecticidal Test on Melon Thrip (Thrips palmi)
Into a plastic cup (diameter: 5 cm, height: 5 cm) was poured 1% agar gel, and the reverse side of a cucumber leaf cut with a diameter of 4.5 cm was placed upward to prepare leaf disc. A chemical to the prescribed concentration was dispersed thereon using a vertical sprayer. After air-drying, 5 adult melon thrips were released thereinto and the resulting material was lidded. 3 days thereafter, the number of surviving insects was counted and the mortality was calculated.

[3] = system: Onion Thrip (Thrips tabaci); details: Comparative Example 1; same conditions as Test Example 5
Method: Insecticidal Test on Onion Thrip (Thrips tabaci)
A chemical to the prescribed concentration was dispersed on onion seedlings, air-dried, and then both the seedlings and 5 adult insects of onion thrips were put into a glass test tube (diameter; 3 cm, height: 10 cm). The resulting material was lidded. 3 days thereafter, the number of surviving insects was counted and the mortality was calculated.

[4] = system: Common Cutworm (Spodoptera litura); assay: Insecticidal Test on Common Cutworm (Spodoptera litura); details: Comparative Example 1; same conditions as Test Example 1
Method: Insecticidal Test on Common Cutworm (Spodoptera litura)
A piece of cabbage leaf was immersed for 30 seconds in a liquid chemical prepared by diluting a test compound to a prescribed concentration. After air-drying, the piece was put into a 7-cm polyethylene cup and second-instar larvae of common cutworms were released thereinto. The polyethylene cups were set in an isothermal chamber thermostated at 25° C. From the release 6 days later, the dead and alive were counted. The test was carried out with two replications of 5 insects per a plot.

[5] = system: Diamondback Moth (Plutella xylostella); assay: Insecticidal Test on Diamondback Moth (Plutella xylostella); details: Comparative Example 1; same conditions as Test Example 2
Method: Insecticidal Test on Diamondback Moth (Plutella xylostella)
A piece of cabbage leaf was immersed for 30 seconds in a liquid chemical prepared by diluting a test compound to a prescribed concentration. After air-drying, the piece was put into a 7-cm polyethylene cup and second-instar larvae of diamondback moths were released thereinto. The polyethylene cups were set in an isothermal chamber thermostated at 25° C. From the release, 6 days later, the dead and alive were counted. The test was carried out with two replications of 5 insects per a plot.

Measured: insecticidal activity

Cc1cc(C(F)(F)F)cc(C)c1NC(=O)c1cccc(NC(=O)c2ccccc2)c1 [Compound B, N-(2,6-dimethyl-4-trifluoromethyl)phenyl 3-(benzoylamino)benzamide]
could not be confirmed: all assays above

Cc1cc(C(F)(C(F)(F)F)C(F)(F)F)ccc1NC(=O)c1cccc(NC(=O)c2ccccc2I)c1 [Compound A, N-(4-heptafluoroisopropyl-2-methyl)phenyl 3-(2-iodobenzoylamino)benzamide]
could not be confirmed: all assays above
